{
  "source": "patent US4535081A",
  "about": "“Antiallergic and antiulcer 1-oxo-1H-thiazolo[3,2-a]pyrimidine-2-carboxamides and intermediates therefor” (Pfizer Inc., priority 1983, dated 1985)",
  "key": {"[1]": {"assay": "Oral absorption and plasma concentrations, rats", "format": "in vivo, rat", "details": "after oral administration of III", "protocol": "(§1) This is supported by the observations of plasma concentrations of 3 to 7 μg/ml one hour after oral administration of III, 50 to 300 mg/kg."}, "[2]": {"system": "IgG (hyperimmune antiserum) PCA reaction", "assay": "Oral activity in PCA test, IgG", "format": "in vivo", "details": "Rattus norvegicus, 10 mg./kg., Table II acids, read-out: Oral Activity (% of Protection) of Acids in the PCA Test, IgG", "protocol": "(§2) The antiallergy property of the compounds of this invention is evaluated by the passive cutaneous anaphylaxis (PCA) test (Ovary, J. Immun., 81, 355, 1958). In the PCA test, normal animals are injected intradermally (i.d.) with antibodies contained in serum obtained from actively sensitized animals. The animals are then challenged intravenously with antigen mixed with a dye such as Evans' Blue. The increased capillary permeability caused by the antigen-antibody reaction causes the dye to leak from the site of the antibody injection. The test animals are then asphyxiated and the intensity of the reaction determined by measuring the diameter and intensity of the blue coloration on the inner surface of the animals' skin.\n(§3) The ability of agents to interfere with PCA reactions is measured in male Charles River Wistar rats, 170-210 g. Reaginic antiserum, rich in IgE antibodies, is prepared according to Petillo et al., Int. Arch. Allergy, 44, 309 (1973). Hyperimmune antiserum rich in IgG antibodies to hen egg albumin is prepared according to Orange et al., J. Exptl. Med., 127, 767 (1968). Forty-eight hours prior to antigen challenge, the reaginic antiserum is injected intradermally (i.d.) into the shaved skin of a normal rat's back; 5 hours before challenge the hyperimmune antisera is similarly injected. At a third site 60 mcg. histamine dihydrochloride and 0.5 mcg. serotonin creatinine sulfate are injected i.d. just prior to antigen challenge as a check for antihistaminic, antiserotonin and unspecific types of blockage; the compounds of the instant invention or saline are then administered i.v. and immediately followed by the challenge of 5 mg. egg albumen and 2.5 mg. Evans' Blue dye in saline. In the case of oral administration Evans' Blue dye and egg albumin are given 5 minutes after administration of the drug. Thirty minutes later the animals are asphyxiated using chloroform and the skin of the back removed and reversed for observation. A score is assigned each injection site equal to the product of the diameter of the site in mm. and a grade of 0.1, 0.5, 1, 2, 3 or 4 proportional to intensity of dye coloration. The scores for a given injection site are summed for each group of five animals and compared to the saline treated controls. The difference is expressed as percent blockage due to the compound employed.\nCompounds representative of those of the present invention are tested for antiallergy activity by the above-described procedure and the resulting activities are reported as the degree (%) of protection."}, "[3]": {"assay": "Plasma levels after repeated daily dosing", "format": "in vivo", "details": "after the eighth daily dose of III", "protocol": "as §1"}, "[4]": {"assay": "Oral absorption and plasma concentrations, dogs", "format": "in vivo, dog", "details": "after oral administration of III", "protocol": "as §1"}, "ethanol-induced ulcer": {"system": "ethanol-induced ulcer", "assay": "Ethanol-induced rat ulcer assay", "format": "in vivo", "details": "oral, 5 mg./kg.; Table IV", "protocol": "Alternatively, the effectiveness of the products of this invention as antiulcer agents is determined in an ethanol-induced rat ulcer assay. In this test, overnight fasted male rats are given drug (5 mg./kg.) or water orally fifteen minutes prior to an orally administered dose of absolute ethanol (1.0 ml.). One hour after the ethanol challenge the animals (8/group) are killed and the stomachs examined for the presence of lesions. All drugs were dissolved in dilute NaOH. After sacrifice the abdomen is opened and a locking hemostat placed at the pylorus. 6 ml. of a 4% solution of formaldehyde was injected into the stomach with a gastric feeding tube and a second locking hemostat was used to seal the esophagus. The stomach was removed, opened along the greater curvature and examined for ulceration.\nThe scoring system used to quantitate the ethanol-induced lesions is given below.\nFor each group of animals an ulcer index is calculated as follows:\nUlceration Index=(the sum of the scores of the group)×(the sum of the number of ulcers in the group)×(the fraction of the group having any incidence of ulceration).\nThe percentage inhibition of ulcers is calculated as follows:\n% Inhibition=100×[(ulcer index controls)-(ulcer index drug-treated)].div.(ulcer index controls)."}, "[5]": {"system": "IgE (reaginic antiserum) PCA reaction", "assay": "Oral activity in PCA test, IgE", "format": "in vivo, rat", "details": "Rattus norvegicus; IgE; oral; 10 mg./kg.; Table II acids; read-out: Oral Activity (% of Protection) of Acids in the PCA Test, IgE", "protocol": "as §2\nThe PCA test is a measure of the anti-allergic (especially anti-asthmatic) activity of a compound. Compounds which inhibit a positive PCA test induced by the rat immunochemical counterpart of human immunoglobulin E (IgE), or reagin, are considered to have anti-allergic activity (C. Mota, Ann. N.Y. Acad. Sci., 103, 264 1963). (Reagin is primarily immunoglobulin E [IgE] and is the principal immunoglobulin responsible for allergic asthma, anaphylaxis, hay fever, food sensitivities and certain manifestations of drug sensitivities, although recent evidence ascribes to the IgG class of antibodies a significant role in the mediation of allergic diseases). Such compounds when administered to a sensitized subject, human or animal, prior to the time when the subject comes into contact with antigens or substances to which it is allergic, will prevent the allergic reaction which would otherwise occur. They, therefore, provide a method for the prophylactic treatment of allergy or anaphylactic reactions of a reagin mediated nature.\nTo put it another way, such compounds block the release of mediators resulting from the antigen-antibody (allergic) reaction as illustrated in the PCA test using rat homocytotropic antibody--a known correlate of human reaginic antibody. Inhibition of reaginic antigen-antibody reactions in rats, the test animal of the PCA test, is regarded as representative of inhibition of human reaginic antigen-antibody reactions which occur during allergic episodes.\nas §3, with “employed. […]” for “employed.”"}, "allergic reactions": {"system": "allergic reactions", "details": "cited from earlier work"}, "bronchi": {"system": "bronchi", "details": "Cox et al., Adv. in Drug Res., 5, 115 (1970); cited from earlier work"}, "gastric ulcers": {"system": "gastric ulcers", "details": "literature; cited from earlier work"}, "gastric acid secretion": {"system": "gastric acid secretion", "details": "literature; cited from earlier work"}},
  "note": "“Also recorded” adds a separate entry of the source. Read-outs that look alike come from different tables or passages of the source.",
  "data": [
    {"smiles": "O=C(O)c1cnc2sc3c(n2c1=O)CCCC3", "note": "[Formula II: (CH2)4, 1-Oxo-1H-cyclohexenothiazolo[3,2-a]pyrimidine-2-carboxylic Acid]", "values": [
      {"measurement": "plasma levels of carboxylic acid metabolite", "setting": "[1]", "value": "comparable to those of III"},
      {"measurement": "inhibition in vivo at 10 mg/kg", "setting": "[2]", "value": 39, "unit": "%"},
      {"measurement": "levels after the eighth daily dose relative to initial dose", "setting": "[3]", "value": "2 to 4", "unit": "times"},
      {"measurement": "plasma levels of carboxylic acid metabolite", "setting": "[4]", "value": "comparable to those of III"},
      {"measurement": "% Inhibition in the Ethanol-Induced Rat Ulcer Assay, acids", "setting": "ethanol-induced ulcer", "value": 21, "unit": "%"},
      {"measurement": "inhibition in vivo at 10 mg/kg", "setting": "[5]", "value": 55, "unit": "%"}
    ]},
    {"smiles": "O=C(O)c1cc(=O)c2c(OCC(O)COc3cccc4oc(C(=O)O)cc(=O)c34)cccc2o1", "note": "[Intal, 1,3-bis(2-carboxycromon-5-yloxy)-2-hydroxypropane]", "values": [
      {"measurement": "activity by the oral route", "setting": "allergic reactions", "value": "lacks efficacy by the oral route; also recorded: not active by the oral route"},
      {"measurement": "activity by the oral route", "setting": "allergic reactions; listed as disodium cromoglycate", "value": "lack of oral efficacy"},
      {"measurement": "bronchodilator action", "setting": "bronchi", "value": "not a bronchodilator"}
    ]},
    {"smiles": "CC1(C)[C@@H](OC(=O)CCC(=O)O)CC[C@]2(C)[C@H]3C(=O)C=C4[C@@H]5C[C@@](C)(C(=O)O)CC[C@]5(C)CC[C@@]4(C)[C@]3(C)CC[C@@H]12", "note": "[carbenoxolone sodium]", "values": [
      {"measurement": "effect on gastric ulcers", "setting": "gastric ulcers", "value": "prevent formation of and to accelerate healing of gastric ulcers in animals, including humans"}
    ]},
    {"smiles": "CN/C(=N/CCSCc1nc[nH]c1C)NC#N", "note": "[cimetidine]", "values": [
      {"measurement": "effect on ulcers / gastric acid secretion", "setting": "gastric acid secretion", "value": "alleviates ulcers by reducing gastric acid secretion"}
    ]}
  ]
}
